The numbers were not newly measured in patent US12377175B2, “Trifunctional constructs with tunable pharmacokinetics useful in imaging and anti-tumor therapies” (Cornell University, priority 2016, dated 2025), which cites them from elsewhere.

The target in this data set is T1, PSMA on LNCaP cells (Homo sapiens, UniProt Q04609).
T1 construct: host or cells: LNCaP
The conditions noted are these: cited from earlier work.

Each structure is given as a SMILES string.

T1 sequence (Q04609 whole entry): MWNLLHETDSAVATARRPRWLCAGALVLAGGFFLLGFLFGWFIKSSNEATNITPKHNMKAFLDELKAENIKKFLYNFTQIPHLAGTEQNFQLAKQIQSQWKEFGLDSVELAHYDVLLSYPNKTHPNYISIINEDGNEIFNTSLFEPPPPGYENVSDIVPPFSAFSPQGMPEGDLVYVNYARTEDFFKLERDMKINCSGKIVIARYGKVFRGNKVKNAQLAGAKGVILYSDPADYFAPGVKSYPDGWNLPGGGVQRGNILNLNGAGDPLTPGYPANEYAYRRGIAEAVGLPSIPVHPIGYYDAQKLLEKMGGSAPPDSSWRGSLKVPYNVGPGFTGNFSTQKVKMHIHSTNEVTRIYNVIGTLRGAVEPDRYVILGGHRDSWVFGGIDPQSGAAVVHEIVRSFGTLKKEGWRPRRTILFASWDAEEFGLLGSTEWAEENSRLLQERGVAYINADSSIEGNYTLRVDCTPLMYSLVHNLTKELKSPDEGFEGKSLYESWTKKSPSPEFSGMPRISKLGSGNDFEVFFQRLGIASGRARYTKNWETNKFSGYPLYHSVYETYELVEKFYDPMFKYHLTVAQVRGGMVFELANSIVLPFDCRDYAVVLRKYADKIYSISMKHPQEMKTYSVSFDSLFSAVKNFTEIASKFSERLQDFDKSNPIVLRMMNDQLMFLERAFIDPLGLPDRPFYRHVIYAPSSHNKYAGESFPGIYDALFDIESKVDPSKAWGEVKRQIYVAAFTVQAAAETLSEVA

Usually Kd stands for a measure of binding affinity in units of concentration. Turning to `O=C(O)CC[C@H](NC(=O)N[C@@H](CCC(=O)N[C@@H](CCCCN(Cc1nccn1CC(=O)O)Cc1nccn1CC(=O)O)C(=O)O)C(=O)O)C(=O)O.[C-]#[O+].[C-]#[O+].[C-]#[O+].[Tc+]` [99mTc-MIP-1427, ^99mTc-((7S,12S,16S)-1-(1-(carboxymethyl)-1H-imidazol-2-yl)-2-((1-(carboxymethyl)-1H-imidazol-2-yl)methyl)-9,14-dioxo-2,8,13,15-tetraazaoctadecane-7,12,16,18-tetracarboxylic acid technetiumtricarbonylcomplex)], the Kd is 640 ± 460 pM.
